Results as given in patent US10508104B2, “6-hydroxy-5-(phenyl/heteroarylsulfonyl)pyrimidin-4(1H)-one as APJ agonists” (Bristol-Myers Squibb Company, priority 2016, dated 2019).
Like-named read-outs stand apart in the source and are kept apart here.

Biological target: human APJ receptor (Homo sapiens (Human), UniProt P35414)
Assay: Intracellular cAMP accumulation assay (APJ hcAMP, HTRF)
Assay type: cell-based
Conditions: read-out: Human APJ cAMP EC50 Potency range
How it was run: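 HEK293 cells stably expressing human APJ, 5,000 per well, incubated 30 min at rt with compound, […] and 2 μM forskolin. cAMP measured by HTRF against a cAMP standard curve as inhibition of forskolin-driven production. EC50 from variable-slope sigmoidal fit.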

[1] = HEK293 cells stably expressing human APJ receptor, inhibition of forskolin-mediated cAMP production
[2] = human APJ, intracellular cAMP accumulation

human APJ receptor, sequence (P35414 whole entry): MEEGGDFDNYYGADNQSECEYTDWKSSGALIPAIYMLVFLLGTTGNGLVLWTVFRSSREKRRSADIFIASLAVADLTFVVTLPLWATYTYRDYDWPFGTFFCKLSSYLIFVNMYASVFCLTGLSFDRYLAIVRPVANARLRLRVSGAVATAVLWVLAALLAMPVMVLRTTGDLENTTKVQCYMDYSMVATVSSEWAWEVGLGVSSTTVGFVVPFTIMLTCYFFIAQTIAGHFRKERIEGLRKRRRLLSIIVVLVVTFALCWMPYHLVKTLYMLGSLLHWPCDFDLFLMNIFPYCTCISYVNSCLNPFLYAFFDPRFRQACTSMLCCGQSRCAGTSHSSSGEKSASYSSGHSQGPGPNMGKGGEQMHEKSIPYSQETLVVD

| SMILES | EC50 [1] | EC50 [2] |
| --- | --- | --- |
| CCCCc1nc(=O)c(S(=O)(=O)c2ccc(Br)cc2)c(O)n1[C@H](C)c1cccc(C#N)c1 [Example 121, 3-[(1R)-1-[5-(4-bromobenzenesulfonyl)-2-butyl-6-hydroxy-4-oxo-1,4-dihydropyrimidin-1-yl]ethyl]benzonitrile] |  | 100 to 300 nM |
| CCCc1nc(=O)c(S(=O)(=O)c2ccc(Br)cc2)c(O)n1[C@@H](COC)c1ccccc1 [Example 125, 5-(4-bromobenzenesulfonyl)-6-hydroxy-1-[(1R)-2-methoxy-1-phenylethyl]-2-propyl-1,4-dihydropyrimidin-4-one] |  | 100 to 300 nM |
| CCCCc1nc(=O)c(S(=O)(=O)c2ccc(C)cc2)c(O)n1[C@@H](C)c1ccccc1 [Example 129, 2-butyl-6-hydroxy-5-(4-methylbenzenesulfonyl)-1-[(1S)-1-phenylethyl]-1,4-dihydropyrimidin-4-one] |  | 100 to 300 nM |
| CCCCc1nc(=O)c(S(=O)(=O)c2ccc(C)cc2)c(O)n1[C@H](C)c1ccccc1 [Example 130, 2-butyl-6-hydroxy-5-(4-methylbenzenesulfonyl)-1-[(1R)-1-phenylethyl]-1,4-dihydropyrimidin-4-one] |  | 10 to 100 nM |
| CCCCc1nc(=O)c(S(=O)(=O)c2ccc(-c3cncc(F)c3)cc2)c(O)n1[C@H](C)c1ccccc1 [Example 131, 2-butyl-5-[4-(5-fluoropyridin-3-yl)benzenesulfonyl]-6-hydroxy-1-[(1R)-1-phenylethyl]-1,4-dihydropyrimidin-4-one] |  | 10 to 100 nM |
| CCCCc1nc(=O)c(S(=O)(=O)c2ccc(-c3ccc(F)nc3)cc2)c(O)n1[C@@H](COC)c1ccccc1 [Example 133, 2-butyl-5-[4-(6-fluoropyridin-3-yl)benzenesulfonyl]-6-hydroxy-1-[(1R)-2-methoxy-1-phenylethyl]-1,4-dihydropyrimidin-4-one] |  | 0.01 to 10 nM |
| CCCCc1nc(=O)c(S(=O)(=O)c2ccc(-c3ccncc3C)cc2)c(O)n1[C@@H](COC)c1ccccc1 [Example 134, 2-butyl-6-hydroxy-1-[(1R)-2-methoxy-1-phenylethyl]-5-[4-(3-methylpyridin-4-yl)benzenesulfonyl]-1,4-dihydropyrimidin-4-one] |  | 0.01 to 10 nM |
| CCCCc1nc(=O)c(S(=O)(=O)c2ccc(-c3ccc(F)nc3)cc2)c(O)n1[C@@H](C)c1ccccc1 [Example 135, 2-butyl-5-[4-(6-fluoropyridin-3-yl)benzenesulfonyl]-6-hydroxy-1-[(1S)-1-phenylethyl]-1,4-dihydropyrimidin-4-one] |  | 0.01 to 10 nM |
| CCCCc1nc(=O)c(S(=O)(=O)c2ccc(-c3ccncc3C)cc2)c(O)n1[C@@H](C)c1ccccc1 [Example 138, 2-butyl-6-hydroxy-5-[4-(3-methylpyridin-4-yl)benzenesulfonyl]-1-[(1S)-1-phenylethyl]-1,4-dihydropyrimidin-4-one] |  | 0.01 to 10 nM |
| CCCCc1nc(=O)c(S(=O)(=O)c2ccc(-c3ccncc3C)cc2)c(O)n1[C@H](C)c1ccccc1 [Example 139, 2-butyl-6-hydroxy-5-[4-(3-methylpyridin-4-yl)benzenesulfonyl]-1-[(1R)-1-phenylethyl]-1,4-dihydropyrimidin-4-one] |  | 0.01 to 10 nM |
| CCCCc1nc(=O)c(S(=O)(=O)c2ccc(-c3cncc(F)c3)cc2)c(O)n1[C@@H](C)c1cccc(C#N)c1 [Example 140, 3-[(1S)-1-{2-butyl-5-[4-(5-fluoropyridin-3-yl)benzenesulfonyl]-6-hydroxy-4-oxo-1,4-dihydropyrimidin-1-yl}ethyl]benzonitrile] |  | 0.01 to 10 nM |
| CCCCc1nc(=O)c(S(=O)(=O)c2ccc(-c3ccncc3C)cc2)c(O)n1[C@@H](C)c1cccc(C#N)c1 [Example 142, 3-[(1S)-1-{2-butyl-6-hydroxy-5-[4-(3-methylpyridin-4-yl)benzenesulfonyl]-4-oxo-1,4-dihydropyrimidin-1-yl}ethyl]benzonitrile] |  | 0.01 to 10 nM |
| CCCCc1nc(=O)c(S(=O)(=O)c2ccc(-c3ccncc3C)cc2)c(O)n1[C@H](CC)c1ccccc1 [Example 143, 2-butyl-6-hydroxy-5-[4-(3-methylpyridin-4-yl)benzenesulfonyl]-1-[(1R)-1-phenylpropyl]-1,4-dihydropyrimidin-4-one] |  | 0.01 to 10 nM |
| CCCCc1nc(=O)c(S(=O)(=O)c2ccc(-c3cncc(F)c3)cc2)c(O)n1[C@@H](CC)c1cccc(OC)c1 [Example 145, 2-butyl-5-[4-(5-fluoropyridin-3-yl)benzenesulfonyl]-6-hydroxy-1-[(1S)-1-(3-methoxyphenyl)propyl]-1,4-dihydropyrimidin-4-one] |  | 0.01 to 10 nM |
| CCCCc1nc(=O)c(S(=O)(=O)c2ccc(-c3ccc(F)nc3)cc2)c(O)n1[C@@H](CC)c1cccc(OC)c1 [Example 146, 2-butyl-5-[4-(6-fluoropyridin-3-yl)benzenesulfonyl]-6-hydroxy-1-[(1S)-1-(3-methoxyphenyl)propyl]-1,4-dihydropyrimidin-4-one] |  | 0.01 to 10 nM |
| CCCCc1nc(=O)c(S(=O)(=O)c2ccc(-c3ccc(OC)nc3C)cc2)c(O)n1[C@@H](COC)c1ccccc1 [Example 147, 2-butyl-6-hydroxy-1-[(1R)-2-methoxy-1-phenylethyl]-5-[4-(6-methoxy-2-methylpyridin-3-yl)benzenesulfonyl]-1,4-dihydropyrimidin-4-one] |  | 0.01 to 10 nM |
| CCCCc1nc(=O)c(S(=O)(=O)c2ccc(-c3ccnc(F)c3C)cc2)c(O)n1[C@@H](COC)c1ccccc1 [Example 148, 2-butyl-5-[4-(2-fluoro-3-methylpyridin-4-yl)benzenesulfonyl]-6-hydroxy-1-[(1R)-2-methoxy-1-phenylethyl]-1,4-dihydropyrimidin-4-one] |  | 0.01 to 10 nM |

Next, values leading:

| EC50 [1] | EC50 [2] | SMILES |
| --- | --- | --- |
| 100 to 300 nM |  | CCCCc1nc(=O)c(S(=O)(=O)c2ccc(Br)cc2)c(O)n1[C@@H](C)c1ccccc1 [Example 118, (S)-5-((4-Bromophenyl)sulfonyl)-2-butyl-6-hydroxy-1-(1-phenylethyl)pyrimidin-4(1H)-one] |
|  | 10 to 100 nM | CCCCc1nc(=O)c(S(=O)(=O)c2ccc(Br)cc2)c(O)n1[C@@H](COC)c1ccccc1 [Example 119, 5-(4-bromobenzenesulfonyl)-2-butyl-6-hydroxy-1-[(1R)-2-methoxy-1-phenylethyl]-1,4-dihydropyrimidin-4-one] |
|  | 10 to 100 nM | CCCCc1nc(=O)c(S(=O)(=O)c2ccc(Br)cc2)c(O)n1[C@H]1CCc2ccccc21 [Example 120, 5-(4-bromobenzenesulfonyl)-2-butyl-1-[(1S)-2,3-dihydro-1H-inden-1-yl]-6-hydroxy-1,4-dihydropyrimidin-4-one] |
|  | 10 to 100 nM | CCCCc1nc(=O)c(S(=O)(=O)c2ccc(Br)cc2)c(O)n1[C@@H](C)c1cccc(C#N)c1 [Example 122, 3-[(1S)-1-[5-(4-bromobenzenesulfonyl)-2-butyl-6-hydroxy-4-oxo-1,4-dihydropyrimidin-1-yl]ethyl]benzonitrile] |
|  | 100 to 300 nM | COC[C@@H](c1ccccc1)n1c(CC2CC2)nc(=O)c(S(=O)(=O)c2ccc(Br)cc2)c1O [Example 123, 5-(4-bromobenzenesulfonyl)-2-(cyclopropylmethyl)-6-hydroxy-1-[(1R)-2-methoxy-1-phenylethyl]-1,4-dihydropyrimidin-4-one] |
|  | 10 to 100 nM | CCCCc1nc(=O)c(S(=O)(=O)c2ccc(Br)cc2)c(O)n1[C@@H](CC)c1cccc(OC)c1 [Example 124, 5-(4-bromobenzenesulfonyl)-2-butyl-6-hydroxy-1-[(1S)-1-(3-methoxyphenyl)propyl]-1,4-dihydropyrimidin-4-one] |
|  | 10 to 100 nM | CCCCc1nc(=O)c(S(=O)(=O)c2ccc(Br)cc2)c(O)n1[C@H](CC)c1ccccc1 [Example 126, 5-(4-bromobenzenesulfonyl)-2-butyl-6-hydroxy-1-[(1R)-1-phenylpropyl]-1,4-dihydropyrimidin-4-one] |
|  | 10 to 100 nM | CCCCc1nc(=O)c(S(=O)(=O)c2ccc(Br)cc2)c(O)n1[C@H](C)c1ccccc1 [Example 127, 5-(4-bromobenzenesulfonyl)-2-butyl-6-hydroxy-1-[(1R)-1-phenylethyl]-1,4-dihydropyrimidin-4-one] |
| 0.01 to 10 nM |  | CCCCc1nc(=O)c(S(=O)(=O)c2ccc(-c3cncc(F)c3)cc2)c(O)n1[C@@H](C)c1ccccc1 [Example 128, (S)-2-Butyl-5-((4-(5-fluoropyridin-3-yl)phenyl)sulfonyl)-6-hydroxy-1-(1-phenylethyl)pyrimidin-4(1H)-one] |
|  | 0.01 to 10 nM | CCCCc1nc(=O)c(S(=O)(=O)c2ccc(-c3cncc(F)c3)cc2)c(O)n1[C@@H](COC)c1ccccc1 [Example 132, 2-butyl-5-[4-(5-fluoropyridin-3-yl)benzenesulfonyl]-6-hydroxy-1-[(1R)-2-methoxy-1-phenylethyl]-1,4-dihydropyrimidin-4-one] |
|  | 0.01 to 10 nM | CCCCc1nc(=O)c(S(=O)(=O)c2ccc(-c3ccc(F)nc3)cc2)c(O)n1[C@H](C)c1ccccc1 [Example 136, 2-butyl-5-[4-(6-fluoropyridin-3-yl)benzenesulfonyl]-6-hydroxy-1-[(1R)-1-phenylethyl]-1,4-dihydropyrimidin-4-one] |
|  | 0.01 to 10 nM | CCCCc1nc(=O)c(S(=O)(=O)c2ccc(C)cc2)c(O)n1[C@@H](COC)c1ccccc1 [Example 137, 2-butyl-6-hydroxy-1-[(1R)-2-methoxy-1-phenylethyl]-5-(4-methylbenzenesulfonyl)-1,4-dihydropyrimidin-4-one] |
|  | 0.01 to 10 nM | CCCCc1nc(=O)c(S(=O)(=O)c2ccc(-c3ccc(F)nc3)cc2)c(O)n1[C@@H](C)c1cccc(C#N)c1 [Example 141, 3-[(1S)-1-{2-butyl-5-[4-(6-fluoropyridin-3-yl)benzenesulfonyl]-6-hydroxy-4-oxo-1,4-dihydropyrimidin-1-yl}ethyl]benzonitrile] |
|  | 0.01 to 10 nM | CCCCc1nc(=O)c(S(=O)(=O)c2ccc(-c3ccncc3C)cc2)c(O)n1[C@@H](CC)c1cccc(OC)c1 [Example 144, 2-butyl-6-hydroxy-1-[(1S)-1-(3-methoxyphenyl)propyl]-5-[4-(3-methylpyridin-4-yl)benzenesulfonyl]-1,4-dihydropyrimidin-4-one] |
